The results in this text go back to ChEMBL document CHEMBL1201862, “PubChem BioAssay data set” (2004).

What all share (assay): DTP human tumour cell line panel, 48 h
In experiment [1] the test system is U-251.
The test system of experiment [2] is M19-MEL.
In experiment [3] the test system is COLO 205.
Experiment [4] deals with SR.
Experiment [5] has as its system MOLT-4.
Experiment [6] relates to A498.
The subject of experiment [7] is KM12.
In experiment [8] the test system is SW-620.
For experiment [9], the system named is NCI-H23.
Experiment [10] concerns 786-0.
The test system of experiment [11] is UACC-62.
For experiment [12], the system named is RXF 393.
Experiment [13] relates to OVCAR-8.
Experiment [14] relates to CCRF-CEM.
Experiment [15] deals with SK-MEL-28.
Experiment [16] has as its system SF-539.
Experiment [17] deals with SK-OV-3.
The test system of experiment [18] is HCT-15.
In experiment [19] the test system is Hs-578T.
In experiment [20] the test system is MDA-N.

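48-hour exposure; five concentrations; linearly interpolated endpoints. At the GI50, growth is halved.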 Calls of active or inactive are those of the source. Cut-off read from the data, not from the text of the source: active = GI50 up to about 1.1 µM and inactive = higher.

On to `CC(=O)OCC1OC(Sc2ccccn2)C=CC1OC(C)=O` (centres undefined), for which the GI50 in experiment [1], in [2], in experiment [3], in [4], in experiment [5] and in experiment [6] was > 100 µM (inactive) throughout. Also, the GI50 in [7], in experiment [8], in [9], in [10], in experiment [11] and in experiment [12] was > 100 µM (inactive) in each case. The GI50 in [13], in experiment [14], in experiment [15], in experiment [16] and in experiment [17] was > 100 µM (inactive) each time.

As for `N#Cc1cc([N+](=O)[O-])ccc1NC(=O)/C(=N/N)C(C(=O)c1ccc(Cl)c(Cl)c1)C1OC(=O)c2ccccc21` (centres undefined), the GI50 in experiment [1] was 42.9 µM (inactive); in [2], 26.9 µM (inactive); in experiment [18] it was 42.2 µM; in experiment [3], > 100 µM (inactive); in [4] it was 54.2 µM (inactive); in experiment [5], 36.8 µM (inactive). The GI50 was 29.4 µM (inactive) in experiment [6]; 58.1 µM (inactive) in experiment [7]; 95.7 µM (inactive) in experiment [8]; 25.1 µM (inactive) in experiment [9]; 59.3 µM (inactive) in experiment [10]; 31 µM (inactive) in experiment [11]. Moreover, the GI50 in [12] is 19.5 µM (inactive); in experiment [13], 28.1 µM (inactive); in experiment [14], 38.9 µM (inactive); in experiment [15], 35.6 µM (inactive); in experiment [16] it was 67.5 µM (inactive); in experiment [17], > 100 µM (inactive).

In the case of `O=c1c(NO)c([N+](=O)[O-])cnn1-c1ccccc1`, the GI50 in experiment [1] is 3.12 µM (inactive); in experiment [2] it was 3.67 µM (inactive); in experiment [19], < 0.01 µM (active); in [18], 4.78 µM; in experiment [3] it was 3.62 µM (inactive); in experiment [4], 2.78 µM (inactive). The GI50 in experiment [5] is 2.39 µM (inactive); in experiment [6], 20.6 µM (inactive); in experiment [7], 9.62 µM (inactive); in experiment [8], 1.75 µM (inactive); in experiment [9] it was 6.55 µM (inactive); in experiment [10] it was 6.07 µM (inactive). For the same compound, the GI50 was 4.2 µM (inactive) in [11]; 5.92 µM (inactive) in [12]; 2.63 µM (inactive) in experiment [13]; 0.971 µM (active) in experiment [14]; 2.29 µM (inactive) in experiment [20]; 3.43 µM (inactive) in experiment [15]. Also, the figures for the GI50 in [16] and in experiment [17] were 15.2 µM (inactive) and 7.01 µM (inactive), respectively.

For `CN1C(c2ccccc2)CC(O)CC1c1ccccc1` (centres undefined), the GI50 was > 100 µM (inactive) in experiment [1]; > 100 µM (inactive) in [2]; over 100 µM in [18]; > 100 µM (inactive) in experiment [3]; > 100 µM (inactive) in [4]; > 100 µM (inactive) in [5]. For the same compound, the GI50 in experiment [6], in [7], in [8], in experiment [9], in experiment [10] and in [11] was > 100 µM (inactive) in each case. Moreover, the GI50 in [12], in [13], in experiment [14], in [15], in experiment [16] and in experiment [17] was > 100 µM (inactive) throughout.

As for `COc1cc([C@H]2c3cc4c(cc3O[C@@]3(O)COC(=O)[C@@H]23)OCO4)cc(OC)c1OC`, the GI50 in experiment [1] is > 100 µM (inactive); in experiment [2], > 100 µM (inactive); in experiment [19], > 100 µM (inactive); in experiment [18], over 100 µM; in experiment [3], > 100 µM (inactive); in experiment [4], > 100 µM (inactive). The GI50 in experiment [5] is > 100 µM (inactive); in experiment [6], > 100 µM (inactive); in [7] it was > 100 µM (inactive); in experiment [8] it was > 100 µM (inactive); in experiment [9], > 10 µM (inactive); in experiment [10] it was > 100 µM (inactive). Besides, the GI50 in experiment [11] is > 100 µM (inactive); in experiment [12] it was > 10 µM (inactive); in experiment [13], > 100 µM (inactive); in experiment [14] it was > 100 µM (inactive); in [20], > 100 µM (inactive); in [15], > 100 µM (inactive). Moreover, the GI50 in experiment [16] and in [17] was > 100 µM (inactive) in each case.

For the compound `CN(C)c1ccc(/C=N/C23CC4CC(CC(C4)C2)C3)cc1`, the GI50 in experiment [1] is > 100 µM (inactive); in experiment [2], > 100 µM (inactive); in experiment [18], over 100 µM; in experiment [3], > 100 µM (inactive); in experiment [4] it was > 100 µM (inactive); in experiment [5], > 100 µM (inactive). In addition, the GI50 in experiment [6], in experiment [7], in [8], in experiment [9], in experiment [10] and in [11] was > 100 µM (inactive) each time. Further, the GI50 in [12], in [13], in experiment [14], in experiment [15], in [16] and in experiment [17] was > 100 µM (inactive) in each case.

On to `Cc1c(-c2nnc(-c3ccccc3)o2)c(=O)n(-c2ccccc2)n1C`, for which the GI50 was > 100 µM (inactive) in experiment [1]; > 100 µM (inactive) in [2]; over 100 µM in experiment [18]; > 100 µM (inactive) in [3]; > 100 µM (inactive) in [4]; > 100 µM (inactive) in experiment [5]. The GI50 in [6], in experiment [7], in [8], in experiment [9], in [10] and in [11] was > 100 µM (inactive) each time. Moreover, the GI50 in experiment [12], in experiment [13], in experiment [14], in experiment [15], in experiment [16] and in experiment [17] was > 100 µM (inactive) each time.

One may read the GI50 as the concentration giving 50% growth inhibition.
